Target: Aβ42 (Homo sapiens, UniProt P05067)
Experiment: Th-T (thioflavin-T) assay of Aβ42 aggregation
Format: biochemical
Details: for Th-T fluorescence, mean of three wells: Aβ42 aggregation time course

Chain of Aβ42 (P05067 672-713): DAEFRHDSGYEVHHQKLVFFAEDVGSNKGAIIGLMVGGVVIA

In the case of `C=C1CCC2C(C)(CCC=C(C)C)C(O)CCC2(C)C1Cc1c(OC)oc(C)c(C(=O)OC)c1=O` (stereo not drawn) [Compound 14], the “delay of the nucleation phase” value is reported as “no delay”, the “elongation of Aβ42” value is reported as “partly suppressed the elongation of Aβ42” and the “first Th-T assay result” value (Aβ42 (10 μM) ± DPPs (20 μM), room temperature) is reported as “suppressed Aβ42”. The “Th-T fluorescence, mean of three wells” value (reading M117) was 1.655, the “Th-T fluorescence, mean of three wells” value (reading M118) was 1.6572 and the “Th-T fluorescence, mean of three wells” value (reading M119) was 1.678. For the same compound, the “Th-T fluorescence, mean of three wells” value (reading M120) was 1.679, the “Th-T fluorescence, mean of three wells” value (reading M121) was 1.668 and the “Th-T fluorescence, mean of three wells” value (reading M122) was 1.683. The “Th-T fluorescence, mean of three wells” value (reading M123) was 1.681, the “Th-T fluorescence, mean of three wells” value (reading M124) was 1.6777 and the “Th-T fluorescence, mean of three wells” value (reading M125) was 1.687. The “Th-T fluorescence, mean of three wells” value (reading M126) was 1.688, the “Th-T fluorescence, mean of three wells” value (reading M127) was 1.689 and the “Th-T fluorescence, mean of three wells” value (reading M128) was 1.7014. For the same compound, the “Th-T fluorescence, mean of three wells” value (reading M129) was 1.701, the “Th-T fluorescence, mean of three wells” value (reading M130) was 1.6991 and the “Th-T fluorescence, mean of three wells (Fig. 7a)” value (from here on “Th-T fluorescence … (Fig. 7a)”) (column suffix _10, measurement M19) was 1.991. For the same compound, the “Th-T fluorescence … (Fig. 7a)” value (column suffix _10, measurement M20) was 2.087, the “Th-T fluorescence … (Fig. 7a)” value (column suffix _10, measurement M21) was 2.17 and the “Th-T fluorescence … (Fig. 7a)” value (column suffix _10, measurement M22) was 2.206. The “Th-T fluorescence … (Fig. 7a)” value (column suffix _10, measurement M23) was 2.232, the “Th-T fluorescence … (Fig. 7a)” value (column suffix _10, measurement M24) was 2.258 and the “Th-T fluorescence … (Fig. 7a)” value (column suffix _10, measurement M25) was 2.291. The “Th-T fluorescence … (Fig. 7a)” value (column suffix _10, measurement M26) was 2.3072, the “Th-T fluorescence … (Fig. 7a)” value (column suffix _10, measurement M27) was 2.333 and the “Th-T fluorescence … (Fig. 7a)” value (column suffix _10, measurement M28) was 2.3263. For the same compound, the “Th-T fluorescence … (Fig. 7a)” value (column suffix _10, measurement M29) was 2.338, the “Th-T fluorescence … (Fig. 7a)” value (column suffix _10, measurement M30) was 2.363 and the “Th-T assay signal, mean of three wells (Fig. 7a)” value (“Th-T assay signal, mean” below) (column suffix _10, reading M1) was 0.2293. For the same compound, the “Th-T assay signal, mean” value (column suffix _10, reading M2) was 0.2207, the “Th-T assay signal, mean” value (column suffix _10, reading M3) was 0.2333 and the “Th-T assay signal, mean” value (column suffix _10, reading M4) was 0.2495. The “Th-T assay signal, mean” value (column suffix _10, reading M5) was 0.2748, the “Th-T assay signal, mean” value (column suffix _10, reading M6) was 0.3168 and the “Th-T assay signal, mean” value (column suffix _10, reading M7) was 0.3327. For the same compound, the “Th-T assay signal, mean” value (column suffix _10, reading M8) was 0.3584, the “Th-T assay signal, mean” value (column suffix _10, reading M9) was 0.3937 and the “Th-T assay signal, mean” value (column suffix _10, reading M10) was 0.4248. The “Th-T assay signal, mean” value (column suffix _10, reading M11) was 0.4498, the “Th-T assay signal, mean” value (column suffix _10, reading M12) was 0.5064 and the “Th-T assay signal, mean” value (column suffix _10, reading M13) was 0.6552. The “Th-T assay signal, mean” value (column suffix _10, reading M14) was 0.8811, the “Th-T assay signal, mean” value (column suffix _10, reading M15) was 1.163 and the “Th-T assay signal, mean” value (column suffix _10, reading M16) was 1.433. For the same compound, the “Th-T assay signal, mean” value (column suffix _10, reading M17) was 1.668, the “Th-T assay signal, mean” value (column suffix _10, reading M18) was 1.846 and the “Fig. 7a Th-T reading, mean of three wells” value (shortened to “Fig. 7a Th-T reading, mean”) (column suffix _10, reading M85) was 2.79. For the same compound, the “Fig. 7a Th-T reading, mean” value (column suffix _10, reading M86) was 2.788, the “Fig. 7a Th-T reading, mean” value (column suffix _10, reading M87) was 2.811 and the “Fig. 7a Th-T reading, mean” value (column suffix _10, reading M88) was 2.833. The “Fig. 7a Th-T reading, mean” value (column suffix _10, reading M89) was 2.856, the “Fig. 7a Th-T reading, mean” value (column suffix _10, reading M90) was 2.853 and the “Fig. 7a Th-T reading, mean” value (column suffix _10, reading M91) was 2.848. For the same compound, the “Fig. 7a Th-T reading, mean” value (column suffix _10, reading M92) was 2.836, the “Fig. 7a Th-T reading, mean” value (column suffix _10, reading M93) was 2.868 and the “Fig. 7a Th-T reading, mean” value (column suffix _10, reading M94) was 2.853. The “Fig. 7a Th-T reading, mean” value (column suffix _10, reading M95) was 2.8555, the “Fig. 7a Th-T reading, mean” value (column suffix _10, reading M96) was 2.819 and the “Fig. 7a Th-T reading, mean” value (column suffix _10, reading M97) was 2.823. The “Fig. 7a Th-T reading, mean” value (column suffix _10, reading M98) was 2.843, the “Fig. 7a Th-T reading, mean” value (column suffix _10, reading M99) was 2.862 and the “Fig. 7a Th-T reading, mean” value (column suffix _10, reading M100) was 2.849. For the same compound, the “Fig. 7a Th-T reading, mean” value (column suffix _10, reading M101) was 2.83, the “Fig. 7a Th-T reading, mean” value (column suffix _10, reading M102) was 2.84 and the “Fig. 7a Th-T reading, mean” value (column suffix _10, reading M103) was 2.843. The “Fig. 7a Th-T reading, mean” value (column suffix _10, reading M104) was 2.878, the “Fig. 7a Th-T reading, mean” value (column suffix _10, reading M105) was 2.894 and the “Fig. 7a Th-T reading, mean” value (column suffix _10, reading M106) was 2.859. For the same compound, the “Th-T fluorescence … (Fig. 7a)” value (column suffix _20, measurement M19) was 1.051, the “Th-T fluorescence … (Fig. 7a)” value (column suffix _20, measurement M20) was 1.16 and the “Th-T fluorescence … (Fig. 7a)” value (column suffix _20, measurement M21) was 1.235. The “Th-T fluorescence … (Fig. 7a)” value (column suffix _20, measurement M22) was 1.279, the “Th-T fluorescence … (Fig. 7a)” value (column suffix _20, measurement M23) was 1.352 and the “Th-T fluorescence … (Fig. 7a)” value (column suffix _20, measurement M24) was 1.3992. For the same compound, the “Th-T fluorescence … (Fig. 7a)” value (column suffix _20, measurement M25) was 1.478, the “Th-T fluorescence … (Fig. 7a)” value (column suffix _20, measurement M26) was 1.556 and the “Th-T fluorescence … (Fig. 7a)” value (column suffix _20, measurement M27) was 1.595. For the same compound, the “Th-T fluorescence … (Fig. 7a)” value (column suffix _20, measurement M28) was 1.672, the “Th-T fluorescence … (Fig. 7a)” value (column suffix _20, measurement M29) was 1.711 and the “Th-T assay signal, mean” value (column suffix _20, reading M1) was 0.305. The “Th-T assay signal, mean” value (column suffix _20, reading M2) was 0.2567, the “Th-T assay signal, mean” value (column suffix _20, reading M3) was 0.2803 and the “Th-T assay signal, mean” value (column suffix _20, reading M4) was 0.2741. The “Th-T assay signal, mean” value (column suffix _20, reading M5) was 0.2931, the “Th-T assay signal, mean” value (column suffix _20, reading M6) was 0.3005 and the “Th-T assay signal, mean” value (column suffix _20, reading M7) was 0.3085. The “Th-T assay signal, mean” value (column suffix _20, reading M8) was 0.3015, the “Th-T assay signal, mean” value (column suffix _20, reading M9) was 0.3254 and the “Th-T assay signal, mean” value (column suffix _20, reading M10) was 0.3505. For the same compound, the “Th-T assay signal, mean” value (column suffix _20, reading M11) was 0.3712, the “Th-T assay signal, mean” value (column suffix _20, reading M12) was 0.4273 and the “Th-T assay signal, mean” value (column suffix _20, reading M13) was 0.4951. For the same compound, the “Th-T assay signal, mean” value (column suffix _20, reading M14) was 0.5807, the “Th-T assay signal, mean” value (column suffix _20, reading M15) was 0.6574 and the “Th-T assay signal, mean” value (column suffix _20, reading M16) was 0.7497. For the same compound, the “Th-T assay signal, mean” value (column suffix _20, reading M17) was 0.8453, the “Th-T assay signal, mean” value (column suffix _20, reading M18) was 0.9743 and the “Fig. 7a Th-T reading, mean” value (column suffix _20, reading M85) was 1.842. The “Fig. 7a Th-T reading, mean” value (column suffix _20, reading M86) was 1.882, the “Fig. 7a Th-T reading, mean” value (column suffix _20, reading M87) was 1.842 and the “Fig. 7a Th-T reading, mean” value (column suffix _20, reading M88) was 1.862. For the same compound, the “Fig. 7a Th-T reading, mean” value (column suffix _20, reading M89) was 1.848, the “Fig. 7a Th-T reading, mean” value (column suffix _20, reading M90) was 1.855 and the “Fig. 7a Th-T reading, mean” value (column suffix _20, reading M91) was 1.818. For the same compound, the “Fig. 7a Th-T reading, mean” value (column suffix _20, reading M92) was 1.795, the “Fig. 7a Th-T reading, mean” value (column suffix _20, reading M93) was 1.7999 and the “Fig. 7a Th-T reading, mean” value (column suffix _20, reading M94) was 1.805. The “Fig. 7a Th-T reading, mean” value (column suffix _20, reading M95) was 1.783, the “Fig. 7a Th-T reading, mean” value (column suffix _20, reading M96) was 1.793 and the “Fig. 7a Th-T reading, mean” value (column suffix _20, reading M97) was 1.78. For the same compound, the “Fig. 7a Th-T reading, mean” value (column suffix _20, reading M98) was 1.799, the “Fig. 7a Th-T reading, mean” value (column suffix _20, reading M99) was 1.789 and the “Fig. 7a Th-T reading, mean” value (column suffix _20, reading M100) was 1.781.
